Measurements taken from patent publication US9493441B2, “Acyclic cyanoethylpyrazoles as janus kinase inhibitors” (Merck Sharp & Dohme Corp., priority 2011, dated 2016).
Like-named read-outs stand apart in the source and are kept apart here.

Tests used:
JAK2 = JAK2 (Homo sapiens (Human), UniProt O60674); experiment: Jak biochemical HTRF assay, JAK2
JAK1 = JAK1 (Homo sapiens (Human), UniProt P23458); experiment: Jak biochemical HTRF assay, JAK1
[1] = JAK2 IC50 (nM), recombinant GST-tagged catalytic domain, [ATP] […]
[2] = JAK1 IC50 (nM), recombinant GST-tagged catalytic domain, [ATP] 31.8 μM
[3] = read-out: JAK2 IC50, recombinant GST-tagged catalytic domain, [ATP] […]

Chain of JAK2 (O60674 849-1124): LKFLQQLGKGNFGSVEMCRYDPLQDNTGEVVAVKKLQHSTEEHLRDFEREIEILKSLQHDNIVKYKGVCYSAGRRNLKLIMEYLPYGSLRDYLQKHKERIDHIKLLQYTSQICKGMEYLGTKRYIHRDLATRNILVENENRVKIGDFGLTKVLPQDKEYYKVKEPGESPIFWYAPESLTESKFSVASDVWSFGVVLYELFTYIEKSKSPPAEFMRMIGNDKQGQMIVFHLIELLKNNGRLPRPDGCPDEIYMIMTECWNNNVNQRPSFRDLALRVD
Chain of JAK1 (P23458 875-1153): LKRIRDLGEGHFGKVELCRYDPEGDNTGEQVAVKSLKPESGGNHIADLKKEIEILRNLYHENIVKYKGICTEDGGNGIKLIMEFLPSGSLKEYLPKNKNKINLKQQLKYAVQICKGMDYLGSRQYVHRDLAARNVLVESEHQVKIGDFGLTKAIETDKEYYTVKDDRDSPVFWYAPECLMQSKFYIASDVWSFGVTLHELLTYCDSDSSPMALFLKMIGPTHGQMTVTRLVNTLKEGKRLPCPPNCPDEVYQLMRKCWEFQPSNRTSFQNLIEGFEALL

Row | Compound | IC50 (JAK2; [1]) [nM] | IC50 (JAK1; [2]) [nM] | IC50 (JAK2; [3]) [nM] | IC50 (JAK1; read-out: JAK1 IC50, recombinant GST-tagged catalytic domain, [ATP] 31.8 μM) [nM]
1 | N#CCC(C1CC1)n1cc(C(N)=O)c(Nc2ccc3c(c2)CNC3=O)n1 (stereo not drawn) [Example 7, 1-(2-Cyano-1-cyclopropylethyl)-3-[(1-oxo-2,3-dihydro-4H-isoindol-5-yl)amino]-1H-pyrazole-4-carboxamide] | 38 |  |  | 
2 | N#CCC(C1CC1)n1cc(C(N)=O)c(Nc2ccc3c(c2)CN(CC(F)(F)F)C3=O)n1 (stereo not drawn) [Example 4-31, 1-(2-cyano-1-cyclopropylethyl)-3-{[1-oxo-2-(2,2,2-trifluoroethyl)-2,3-dihydro-1H-isoindol-5-yl]amino}-1H-pyrazole-4-carboxamide] | 7 | 2 |  | 
3 | N#CCC(C1CC1)n1cc(C(N)=O)c(Nc2ccnc(Cl)c2)n1 (stereo not drawn) [Example 4-27, 3-[(2-chloropyridin-4-yl)amino]-1-(2-cyano-1-cyclopropylethyl)-1H-pyrazole-4-carboxamide] | 290 | 166 |  | 
4 | N#CCC(C1CCOC1)n1cc(C(N)=O)c(Nc2ccccc2)n1 (stereo not drawn) [Example 1-14, 1-[2-cyano-1-(tetrahydrofuran-3-yl)ethyl]-3-(phenylamino)-1H-pyrazole-4-carboxamide] | 1400 | 126 |  | 
5 | C[S+]([O-])c1ccc(Nc2nn(C(CC#N)C3CC3)cc2C(N)=O)cc1 (stereo not drawn) [Example 4-32, 1-(2-cyano-1-cyclopropylethyl)-3-{[4-(methylsulfinyl)phenyl]amino}-1H-pyrazole-4-carboxamide] | 13 | 1 |  | 
6 | N#CCC(C1CC1)n1cc(C(N)=O)c(Nc2ccc(S(N)(=O)=O)cc2)n1 (stereo not drawn) [Example 6-3, 1-(2-cyano-1-cyclopropylethyl]-3-[(4-sulfamoylphenyl)amino]-1H-pyrazole-4-carboxamide] | 10 | 1 |  | 
7 | CC(C)(C)OC(=O)N1CCC(C(CC#N)n2cc(C(N)=O)c(Nc3ccc(F)cc3)n2)C1 (stereo not drawn) [Example 1-3, tert-butyl 3-(1-{4-carbamoyl-3-[(4-fluorophenyl)amino]-1H-pyrazol-1-yl}-2-cyanoethyl)pyrrolidine-1-carboxylate] | 1480 | 267 |  | 
8 | N#CCC(C1CC1)n1cc(C(N)=O)c(Nc2ccc(-c3cnco3)cc2)n1 (stereo not drawn) [Example 4-24, 1-(2-cyano-1-cyclopropylethyl)-3-{[4-(1,3-oxazol-5-yl)phenyl]amino}-1H-pyrazole-4-carboxamide] | 262 | 41 |  | 
9 | N#CCC(C1CCC1)n1cc(C(N)=O)c(Nc2ccccc2)n1 (stereo not drawn) [Example 1-19, 1-(2-cyano-1-cydobutylethyl)-3-(phenylamino)-1H-pyrazole-4-carboxamide] | 272 | 31 |  | 
10 | CC(CC#N)n1cc(C(N)=O)c(Nc2ccc(C(=O)N3CCS(=O)(=O)CC3)cc2)n1 (stereo not drawn) [Example 1-16, 1-(2-cyano-1-methylethyl)-3-({4-[(1,1-dioxidothiomorpholin-4-yl)carbonyl]phenyl}amino)-1H-pyrazole-4-carboxamide] | 45 | 19 |  | 
11 | CS(=O)(=O)c1ccc(Nc2nn(C(CC#N)C3CC3)cc2C(N)=O)cc1 (stereo not drawn) [Example 4-1, 1-(2-Cyano-1-cyclopropylethyl)-3-{[4-(methylsulfonyl)phenyl]amino}-1H-pyrazole-4-carboxamide] | 28 | 3 |  | 
12 | N#CCC(C1CC1)n1cc(C(N)=O)c(Nc2cccc(CO)c2)n1 (stereo not drawn) [Example 4-10, 1-(2-cyano-1-cyclopropylethyl)-3-{[3-(hydroxymethyl)phenyl]amino}-1H-pyrazole-4-carboxamide] | 41 | 12 |  | 
13 | Cc1c(Cl)ncnc1N1CCC([C@H](CC#N)n2cc(C(N)=O)c(Nc3ccc(F)cc3)n2)CC1 [Example 13, 1-{(1S)-1-[1-(6-Chloro-5-methylpyrimidin-4-yl)piperidin-4-yl]-2-cyanoethyl}-3-[(4-fluorophenyl)amino]-1H-pyrazole-4-carboxamide] | 1500 | 823 |  | 
14 | N#CCC(C1CC1)n1cc(C(N)=O)c(Nc2ccc3c(c2)CN(CC(=O)O)C3=O)n1 (stereo not drawn) [Example 8, (5-{[4-Carbamoyl-1-(2-cyano-1-cyclopropylethyl)-1H-pyrazol-3-yl]amino}-1-oxo-1,3-dihydro-2H-isoindol-2-yl)acetic acid] | 34 | 1 |  | 
15 | Cc1noc(-c2ccc(Nc3nn(C(CC#N)C4CC4)cc3C(N)=O)cc2)n1 (stereo not drawn) [Example 4-36, 1-(2-cyano-1-cyclopropylethyl)-3-{[4-(3-methyl-1,2,4-oxadiazol-5-yl)phenyl]amino}-1H-pyrazole-4-carboxamide] | 39 | 5 |  | 
16 | CC(C)(C)OC(=O)N1Cc2cc(Nc3nn(C(CC#N)C4CC4)cc3C(N)=O)ccc2C1=O (stereo not drawn) [Example 4-2, tert-butyl 5-{[4-carbamoyl-1-(2-cyano-1-cyclopropylethyl)-1H-pyrazol-3-yl]amino}-1-oxo-1,3-dihydro-2H-isoindole-2-carboxylate] | 35 | 2 |  | 
17 | CC(C)(C)OC(=O)N1CCC(C(CC#N)n2cc(C(N)=O)c(Nc3ccc(F)cc3)n2)CC1 (stereo not drawn) [Example 3-1, tert-Butyl 4-(1-[4-carbamoyl-3-[(4-fluorophenyl)amino]-1H-pyrazol-1-yl]-2-cyanoethyl)piperidine-1-carboxylate] | 1500 | 49 |  | 
18 | N#CCC(C1CC1)n1cc(C(N)=O)c(Nc2ccc(N3CCOCC3)cc2)n1 (stereo not drawn) [Example 4-17, 1-(2-cyano-1-cyclopropylethyl)-3-[(4-morpholin-4-ylphenyl)amino]-1H-pyrazole-4-carboxamide] | 43 | 13 |  | 
19 | N#CCc1ccc(Nc2nn(C(CC#N)C3CC3)cc2C(N)=O)cc1 (stereo not drawn) [Example 4-8, 1-(2-cyano-1-cyclopropylethyl)-3-{[4-(cyanomethyl)phenyl]amino}-1H-pyrazole-4-carboxamide] | 24 | 5 |  | 
20 | CC(CC#N)n1cc(C(N)=O)c(Nc2ccc(S(C)(=O)=O)cc2)n1 (stereo not drawn) [Example 10, 1-(2-Cyano-1-methylethyl)-3-{[4-(methylsulfonyl)phenyl]amino}-1H-pyrazole-4-carboxamide] | 45 | 7 |  | 
21 | N#CCc1cccc(Nc2nn(C(CC#N)C3CC3)cc2C(N)=O)c1 (stereo not drawn) [Example 4-9, 1-(2-cyano-1-cyclopropylethyl)-3-{[3-(cyanomethyl)phenyl]amino}-1H-pyrazole-4-carboxamide] | 27 |  |  | 

The next lines start with the values.

Row | IC50 (JAK2; [1]) [nM] | IC50 (JAK1; [2]) [nM] | IC50 (JAK2; [3]) [nM] | IC50 (JAK1; read-out: JAK1 IC50, recombinant GST-tagged catalytic domain, [ATP] 31.8 μM) [nM] | Compound
22 | 79 | 10 |  |  | N#CCC(C1CC1)n1cc(C(N)=O)c(Nc2ccccc2)n1 (single isomer, unassigned) [Example 17-3, 1-[(1S or 1R)-2-cyano-1-cyclopropylethyl]-3-(phenylamino)-1H-pyrazole-4-carboxamide]
23 | 1500 | 181 |  |  | N#CC[C@@H](C1CCN(C(=O)OCC2CCOC2)CC1)n1cc(C(N)=O)c(Nc2ccc(F)cc2)n1 (stereo partly drawn) [Example 11-12, tetrahydrofuran-3-ylmethyl 4-[(1S)-1-{4-carbamoyl-3-[(4-fluorophenyl)amino]-1H-pyrazol-1-yl}-2-cyanoethyl]piperidine-1-carboxylate]
24 | 1200 | 69 |  |  | N#CC[C@@H](C1CCN(C(=O)OC2CCCC2)CC1)n1cc(C(N)=O)c(Nc2ccc(F)cc2)n1 [Example 11-6, cyclopentyl 4-[(1S)-1-{4-carbamoyl-3-[(4-fluorophenyl)amino]-1H-pyrazol-1-yl}-2-cyanoethyl]piperidine-1-carboxylate]
25 | 1500 | 753 |  |  | N#CC[C@@H](C1CCN(C(=O)OCCN2CCOCC2)CC1)n1cc(C(N)=O)c(Nc2ccc(F)cc2)n1 [Example 11-13, 2-morpholin-4-ylethyl 4-[(1S)-1-{4-carbamoyl-3-[(4-fluorophenyl)amino]-1H-pyrazol-1-yl}-2-cyanoethyl]piperidine-1-carboxylate]
26 | 861 | 52 |  |  | N#CC[C@@H](C1CCN(C(=O)OC2COC2)CC1)n1cc(C(N)=O)c(Nc2ccc(F)cc2)n1 [Example 11-4, oxetan-3-yl 4-[(1S)-1-{4-carbamoyl-3-[(4-fluorophenyl)amino]-1H-pyrazol-1-yl}-2-cyanoethyl]piperidine-1-carboxylate]
27 |  |  | 8 | 1 | 1-[(1R or 1S)-2-cyano-1-cyclopropylethyl]-3-{[4-(methylsulfonyl)phenyl]amino}-1H-pyrazole-4-carboxamide [Example 14-1]
28 | 742 | 47 |  |  | N#CCC(C1CCCC1)n1cc(C(N)=O)c(Nc2ccccc2)n1 (single isomer, unassigned) [Example 16-3, 1-[(1S or 1R)-2-cyano-1-cyclopentylethyl]-3-(phenylamino)-1H-pyrazole-4-carboxamide]
29 | 425 | 7 |  |  | N#CC[C@@H](C1CCN(C(=O)OCC(F)(F)F)CC1)n1cc(C(N)=O)c(Nc2ccc(F)cc2)n1 [Example 11-7, 2,2,2-trifluoroethyl 4-[(1S)-1-{4-carbamoyl-3-[(4-fluorophenyl)amino]-1H-pyrazol-1-yl}-2-cyanoethyl]piperidine-1-carboxylate]
30 | 903 | 92 |  |  | CC(C)(C)OC(=O)N1CCC(C(CC#N)n2cc(C(N)=O)c(Nc3ccc(F)cc3)n2)CC1 (single isomer, unassigned) [Example 14-3, tert-butyl 4-[(1S or 1R)-1-{4-carbamoyl-3-[(4-fluorophenyl)amino]-1H-pyrazol-1-yl}-2-cyanoethyl)piperidine-1-carboxylate]
31 |  |  | 15 |  | N#CC[C@H](C1CC1)n1cc(C(N)=O)c(Nc2ccc3c(c2)CNC3=O)n1 (single isomer, unassigned) [Example 19-1, 1-[(1R or 1S)-2-cyano-1-cyclopropylethyl]-3-[(1-oxo-2,3-dihydro-1H-isoindol-5-yl)amino]-1H-pyrazole-4-carboxamide]
32 |  |  | 105 |  | N#CC[C@@H](C1CC1)n1cc(C(N)=O)c(Nc2ccc3c(c2)CNC3=O)n1 (single isomer, unassigned) [Example 19-2, 1-[(1R or 1S)-2-cyano-1-cyclopropylethyl]-3-[(1-oxo-2,3-dihydro-1H-isoindol-5-yl)amino]-1H-pyrazole-4-carboxamide]
